Data from US20100331331A1, “THERAPEUTIC COMPOSITIONS AND THE USE THEREOF” (priority 2007, published 2010).

Key:
[1] = Pharmacokinetic interaction between atazanavir and the Compound: EVG/ATV versus EVG/r crossover in healthy subjects; details: for half-life: human, plasma
Experimental: This study evaluated the safety and steady-state pharmacokinetics of the co-administered Compound and ATV.
(§1) Healthy subjects received EVG/r 300/100 mg or EVG/ATV 300/400 mg in a randomized, crossover manner for 10 days each, with the last dose being coadministered with the CYP3A probe substrate midazolam (oral syrup; 5 mg) and pharmacokinetic (PK) sampling performed. […] ATV, midazolam, and ritonavir pharmacokinetics were also determined for descriptive statistics.

[2] = Similar studies of the effect of five protease inhibitors on the pharmacokinetics of the Compound; format: in vivo; details: protease inhibitors with ritonavir 100 mg QD to 200 mg BID
Experimental: These studies employed various doses of ritonavir (100 mg QD to 200 mg BID).

[3] = test system: CYP3A; assay: CYP3A probe substrate midazolam pharmacokinetics with EVG/ATV versus EVG/r; details: midazolam oral syrup 5 mg with last dose; EVG/ATV vs. EVG/r
Experimental: as §1

[4] = Pharmacokinetic interaction between atazanavir/r and the Compound, steady-state PK in healthy subjects (studies 1 and 2); format: in vivo, human; details: for AUCtau % GMR (90% CI) / Cmax % GMR (90% CI) / Ctau % GMR (90% CI): coadministration:alone, 14 days
Description: In study 1, 33/61 and study 2, 19/30 subjects completed each study; discontinuations were mostly for known ATV adverse events.

[5] = ATV 400 mg coadministered with EVG 300 mg
[6] = Study 1, the Compound 200 mg (test and reference) + ATV/r 300/100 mg QD, n=33
[7] = Study 2, the Compound test 85 mg, reference 150 mg, ATV/r 300/100 mg QD, n=20
[8] = EVG/ATV 300/400 mg vs. EVG/r 300/100 mg, 10 days each, n=14

SMILES: COC(=O)N[C@H](C(=O)N[C@@H](Cc1ccccc1)[C@@H](O)CN(Cc1ccc(-c2ccccn2)cc1)NC(=O)[C@@H](NC(=O)OC)C(C)(C)C)C(C)(C)C [ATV, 1-[4-(pyridine-2-yl)-phenyl]-4(S)-2,5-bis-[N-(N-methoxycarbonyl-(L)-tert-leucyl)amino]-6-phenyl-2-axahexane, reference compound]
- AUCtau and Ctau compared with historical data [1, 5]: lower than historical data
- Mean (% CV) Ctau [1, 5]: 74.5 (45.7%) ng/ml
- effect on the pharmacokinetics of the Compound [2]: improved pharmacokinetic effect

SMILES: Cc1ncc2n1-c1ccc(Cl)cc1C(c1ccccc1F)=NC2 [midazolam]
- AUCinf geometric mean ratio (90% CI) [3]: 89.5 (80.7, 99.3) %
- Cmax geometric mean ratio (90% CI) [3]: 98.8 (89.6, 109) %

SMILES: COc1cc2c(cc1Cc1cccc(Cl)c1F)c(=O)c(C(=O)O)cn2[C@H](CO)C(C)C [the Compound, 6-(3-chloro-2-fluorobenzyl)-1-[(2S)-1-hydroxy-3-methylbutan-2-yl]-7-methoxy-4-oxo-1,4-dihydroquinoline-3-carboxylic acid]
- systemic exposure ([4]; 85 mg of the Compound with ritonavir-boosted atazanavir versus 150 mg dose of the Compound alone): equivalent
- AUCtau % GMR (90% CI) [4, 6]: 200%
- Cmax % GMR (90% CI) [4, 6]: 185%
- Ctau % GMR (90% CI) [4, 6]: 288%
- AUCtau % GMR (90% CI) [4, 7]: 107%
- Cmax % GMR (90% CI) [4, 7]: 90.9%
- Ctau % GMR (90% CI) [4, 7]: 138%
- exposures upon coadministration with ATV/r ([4]; coadministration with ATV/r): elevated
- systemic exposure ([1]; 300 mg of the Compound with atazanavir versus 300 mg with ritonavir): equivalent
- AUCtau geometric mean ratio (90% CI) [1, 8]: 107 (95.6, 119) %
- Cmax geometric mean ratio (90% CI) [1, 8]: 108 (99, 119) %
- Ctau geometric mean ratio (90% CI) [1, 8]: 89.9 (71.4, 113) %
- adverse events ([1]; EVG/r 300/100 mg or EVG/ATV 300/400 mg, 10 days each, healthy subjects): No grade 4 AE or serious AE were observed
- half-life ([1]; median T1/2, EVG/ATV 300/400 mg): 5.2 h
- half-life ([1]; median T1/2, EVG/r 300/100 mg): 6.3 h
